Like-named read-outs stand apart in the source and are kept apart here.
Key:
MDA-MB-231 cells [1] = experiment: Uptake in the presence of OCT and MATE inhibitors, MDA-MB-231 cells; type: in vitro ADME, human; conditions: for interactions with OCT, PMAT and MATE1 transporters, MDA-MB-231: summary from uptake with inhibitors
Description: The uptake of sulfonamide derivatives of metformin (1–9) in MCF-7 and MDA-MB-231 cells was studied also in the presence of disopyramide, cimetidine (OCT1 and 3 inhibitors), lopinavir (OCT and PMAT inhibitor) and methenamine (MATE and OCT2 inhibitors). The cells were incubated (37 °C, 10 min) with compounds 1–9 at concentrations of 400 and 800 μmol/L and inhibitors (disopyramide, cimetidine, lopinavir or methenamine) in 250 μL of prewarmed HBSS buffer. The protocol of determination of the compound concentration was as described above.

MDA-MB-231 cells [2] = experiment: Cellular uptake of metformin sulfonamides in MDA-MB-231 cells (HPLC); type: in vitro ADME, human; conditions: for transport efficacy (Vmax/Km) in MCF-7 relative to MDA-MB-231: fold lower in MDA-MB-231 than in MCF-7
Description: (§1) The uptake of metformin sulfonamides (1–9) in MCF-7 and MDA-MB-231 cells was studied by incubation of the cells with 10−3000 μmol/L of compounds in 250 μL of prewarmed HBSS buffer at 37 °C for 10 min. Subsequently, the cells were then washed three times with 500 μL of ice-cold HBSS and lysed with 250 μL of 0.1-M NaOH. The samples were collected, centrifuged (5 min, 1400 rpm) and the supernatants were analyzed by the HPLC method. The concentration of each compound in the cells was calculated on the basis of the standard curve prepared by spiking known amounts of every compound on the cell layers in 250 μL of 0.1-M NaOH.
(§2) The concentration of the studied sulfonamides (1–9) was assessed using the HPLC system, consisting of an Agilent 1100 binary pump (Agilent Technologies Inc., Wilmington, DE, USA), an 1100 micro-vacuum degasser, an HP 1050 autosampler and an HP 1050 variable wavelength detector (operated at 235 nm). The chromatographic separations of compounds 1–9 were conducted on an Agilent Zorbax SB-C18 analytical column (4.6 mm × 150 mm, 5 μm) using an isocratic elution of water containing 0.1% formic acid (pH ca. 3.0) and acetonitrile containing 0.1% formic acid with a changing ratio, depending on the compound. The analyses were conducted at room temperature (RT). The detailed procedure of chromatographic analysis was described in our previous paper. The studies were conducted in quadruplicates.
(§3) The protein concentrations in representative wells of each plate were assessed using a Bio-Rad protein assay according to the Bradford method (EnVision, PerkinElmer, Inc., Waltham, MA, USA).

MCF-7 cells [3] = experiment: Cell viability WST-1 assay, MCF-7; type: cell-based; conditions: Homo sapiens, MCF7; WST-1, 24 h, mean ± SD (n = 6–8); read-out: IC50 inhibition of MCF-7 cells' viability
Description: The viability of MCF-7 and MDA-MB-231 cells was determined using a colorimetric WST-1 assay (Takara, Takara Bio Europe, Saint-Germain-en-Laye, France). Both cell lines were seeded at a density of 1 × 10^4 per well on 96-well plates and were cultured for 24 h to obtain 70% confluence. The following day, the cells were treated with various concentrations of compounds 1–9 diluted in the cell culture medium ([…]). The cells were incubated with tested compounds or pure medium (control) for 24 h (37 °C, 5% CO2). Afterwards, the cells were washed with 100 μL of culture medium, and then, the reagent dissolved in the medium was added (100 μL). The plates were incubated at the standard condition for 1.5 h, and the absorbance was read at 450 nm using a microplate reader (iMARK, Bio-Rad, Bio-Rad Laboratories Inc., Hercules, CA, USA). […] The results of samples treated with the test compounds were expressed as a percentage of the control samples. The data were presented as mean ± standard deviation (SD), n = 8. IC50 values (the concentration of the tested compound that inhibited cell growth by 50%) were calculated using a concentration-response curve (GraphPad Prism, Software, San Diego, CA, USA).
The concentrations contributing to the 50% of cell growth inhibition (IC50) were calculated using nonlinear regression analysis (fitting the curve to log (concentration) vs. cellular response).

MCF-7 cells [4] = experiment: Cellular uptake of metformin sulfonamides in MCF-7 cells (HPLC); type: in vitro ADME, human; conditions: for uptake into MCF-7 cells / uptake in MCF-7 cells relative to metformin: 800 μmol/L; for uptake into MCF-7 cells: 10 min incubation, 37 °C; for uptake in MCF-7 cells relative to metformin: fold higher than parent drug metformin
Description: as §1, §2, §3

[5] = compound and inhibitor 400 and 800 µmol/L, 10 min, 37 °C
[6] = Eadie-Hofstee analysis, transporter I
[7] = Eadie-Hofstee analysis, transporter I, read-out: Km, transporter I, MDA-MB-231
[8] = Eadie-Hofstee analysis, transporter II
[9] = Eadie-Hofstee analysis, transporter II, read-out: Km, transporter II, MDA-MB-231
[10] = Eadie-Hofstee analysis, transporter I, read-out: Km, transporter I, MCF-7
[11] = Eadie-Hofstee analysis, transporter II, read-out: Km, transporter II, MCF-7
[12] = Michaelis-Menten curve, read-out: Km MCF-7 (Michaelis Menten curves)

Compound	uptake in the presence of cimetidine, MDA-MB-231 (MDA-MB-231 cells [1]; [5])	uptake in the presence of disopyramide, MDA-MB-231 (MDA-MB-231 cells [1]; [5])	uptake in the presence of lopinavir, MDA-MB-231 (MDA-MB-231 cells [1]; [5])	interactions with OCT, PMAT and MATE1 transporters, MDA-MB-231 (MDA-MB-231 cells [1])	Vmax, transporter I, MDA-MB-231 (MDA-MB-231 cells [2]; [6]) [nmol/min/mg]	Km (MDA-MB-231 cells [2]; [7]) [mM]	Vmax, transporter II, MDA-MB-231 (MDA-MB-231 cells [2]; [8]) [nmol/min/mg]	Km (MDA-MB-231 cells [2]; [9]) [mM]	transport efficacy (Vmax/Km) in MCF-7 relative to MDA-MB-231 (MDA-MB-231 cells [2])	IC50 (MCF-7 cells [3]) [µM]	uptake into MCF-7 cells (MCF-7 cells [4]) [nmol/min/mg protein]	Vmax, transporter I, MCF-7 (MCF-7 cells [4]; [6]) [nmol/min/mg]	Km (MCF-7 cells [4]; [10]) [mM]	Vmax, transporter II, MCF-7 (MCF-7 cells [4]; [8]) [nmol/min/mg]	Km (MCF-7 cells [4]; [11]) [mM]	uptake in MCF-7 cells relative to metformin (MCF-7 cells [4])	Vmax MCF-7 (Michaelis Menten curves) (MCF-7 cells [4]; Michaelis-Menten curve) [nmol/min/mg]	Km (MCF-7 cells [4]; [12]) [mM]	also measured
CN(C)C(=N)N=C(N)NS(=O)(=O)c1ccccc1Cl [Compound 1]	No statistically significant changes	significantly higher uptake	significantly higher uptake	OCT1, PMAT	0.0182 ± 0.0026	3.07 ± 0.562	0.0261 ± 0.0040	3.3 ± 0.625	over 370 fold	12.6 ± 1.2	1.79 ± 0.79	18.53 ± 2.41	6.72 ± 0.982	62.84 ± 21.37	21.1 ± 7.73	approximately 14 fold	–	–	uptake in the presence of methenamine, MDA-MB-231 (MDA-MB-231 cells [1]; [5]): No statistically significant changes; Vmax MDA-231 cells (Michaelis Menten curves) (MDA-MB-231 cells [2]; Michaelis-Menten curve): 0.047 ± 0.065 nmol/min/mg; Km (MDA-MB-231 cells [2]; Michaelis-Menten curve, read-out: Km MDA-231 cells (Michaelis Menten curves)): 8.3 ± 3.27 mM
CN(C)C(=N)N=C(N)NS(=O)(=O)c1ccccc1Br [Compound 4]	significantly decreased	significantly decreased	increased	OCT1, OCT3, PMAT	10.27 ± 1.18	5.52 ± 0.748	21.44 ± 4.03	11.6 ± 2.44	–	430 ± 119	–	0.031 ± 0.002	1.54 ± 0.22	0.153 ± 0.022	8.37 ± 1.43	–	0.049 ± 0.02	2.47 ± 0.652	uptake into MDA-MB-231 cells (MDA-MB-231 cells [2]; 800 μmol/L, 10 min incubation, 37 °C): 1.3 ± 0.21 nmol/min/mg protein; uptake in MDA-MB-231 relative to MCF-7 (MDA-MB-231 cells [2]; fold more efficient in MDA-MB-231 than in MCF-7): approximately 130 fold
CN(C)C(=N)N=C(N)NS(=O)(=O)c1ccccc1F [Compound 7]	–	–	–	OCT1, OCT3	0.262 ± 0.035	1.53 ± 0.298	0.443 ± 0.026	2.25 ± 0.19	10 fold	55.1 ± 2.74	1.592 ± 0.943	5.303 ± 1.334	2.13 ± 0.815	22.43 ± 12.78	6.14 ± 4.6	approximately 14 fold	23.92 ± 7.20	10.8 ± 5.13	–
